Experimental data from patent publication US20240209401A1, “CULTURE MEDIUM COMPOSITION FOR INCREASING GROWTH AND METABOLIC RATE OF ACETOGENIC STRAIN AND METHOD FOR CULTURING ACETOGENIC STRAIN USING THE SAME” (GWANGJU INSTITUTE OF SCIENCE AND TECHNOLOGY, priority 2022, published 2024).

What was measured:
[1] = system: acetogen strain; test: Growth inhibition by high methanol concentration in the medium; type: cell-based; conditions: with respect to the total medium composition
Source text: In this case, the methanol may be contained in a concentration of more than 0 M and 1.5 M or less with respect to the total medium composition.
If the concentration of methanol exceeds 1.5 M, it is not preferable because growth inhibition occurs due to the addition of a high concentration of organic solvent.

[2] = system: acetogen strain; test: Steady-state culture (dilution rate of 0.018/h) with CO and CO2 gas substrates; type: cell-based; conditions: methanol added
Source text: The method for culturing an acetogen strain may include a medium injection step of injecting the acetogen strain culture medium composition containing the C1 compound into a bioreactor; a strain inoculation step of inoculating the acetogenic strain into the culture medium composition; and a bioreactor driving step of culturing the acetogenic strain by driving the bioreactor. […]

Structure (SMILES): CO [methanol]
- concentration of methanol at which growth inhibition occurs [1]: exceeds 1.5 M
- cell concentration in the steady state [2]: 17.4 g/L
- cell conversion yield [2]: 0.008 g DCW/mmol MeOH
